These results are taken from patent publication US9623109B2, “Methods of killing cells and use of same in prevention and treatment of cancer” (Yissum Research Development Company of the Hebrew …, priority 2008, dated 2017).

The target of one series is CKI-epsilon (Homo sapiens, UniProt P49674). Particulars: cited from earlier work.
A further series deals with CKI-delta (Homo sapiens, UniProt P48730). To be noted: cited from earlier work.
The test system of another series is CKIα KO mice. The experiment in a line: Sulindac feeding of CKIα knockout mice (gut phenotype, qRT-PCR, Western, IHC, SA-β-gal). The format is in vivo, mouse. How it is done:
Tamoxifen (Sigma) was dissolved in Corn Oil (Sigma) to a 20 mg/ml concentration. Mice at 2-3 months were injected subcutaneously with 2 mg Tamoxifen per injection, 5-7 injections every other day, over a 10-14 day period. Mice were sacrificed 4-5 days after the last injection. The colon and part of the small intestine were taken for histology, together with the stomach, liver, pancreas, spleen, kidney, heart and lung. Enterocytes (intestinal epithelial cells) were isolated from most of the small intestine. Enterocytes were used for RNA and protein assays.
All tissues were fixated in 4% formaldehyde for 24 hours, paraffin embedded and sectioned at 5 μm for hematoxylin/eosin (H&E) staining and immunohistochemistry. BrdU (Amersham) was injected intraperitonally at 100 μl/10 g body weight, 2 hours prior to sacrifice. The primary antibodies used were goat anti-CKIα (1:100; Santa Cruz), rabbit anti-Cleaved Caspase-3 (1:100; Cell Signaling), rabbit CM5 (anti-mouse p53) (1:400; Novocastra), mouse anti-β-catenin (1:200; BD transduction), mouse anti-BrdU (1:100; NeoMarkers), rabbit anti-Cyclin D1 (1:125; Lab Vision), mouse anti-p21 (1:50; Santa Cruz), mouse anti-γH2AX (Ser139) (1:100; Upstate), mouse anti-IL-8 (1:125; Bender), rabbit anti-Ki67 (1:300; NeoMarkers). The secondary antibodies used for immunohistochemistry were HRP-polymer anti-Rabbit and anti-Goat (Nichirei), HRP-polymer Mouse on Mouse kit (Nichirei), Mach2 anti mouse-HRP polymer (Biocare) and Mouse-Envision Plus (Dako). HRP was visualized with DAB chromogen (Thermo Scientific) and nuclear counterstain was hemotoxylin (BioOptica). The secondary antibody used for immunofluorescence was goat anti mouse Alexa-488 (1:1000; Molecular Probes). The nuclear counterstain used for immunofluorescence was Hoechst (1.5 μg/ml, Molecular Probes).
For enterocyte isolation, ˜⅔ of the small intestine was washed and minced into small pieces in PBS/1 mM DTT. Intestine was separated into single cells in Ca^2+, Mg^2+ free HBSS containing 10 mM HEPES, 5 mM EDTA and 0.5 mM DTT, at 37° C. for 30 minutes with slow agitation. Lysate was mixed vigorously and cell suspension was centrifuged. Cell pellets were frozen in liquid N2 and stored at −80° C. Protein was extracted from cell pellets in cell lysis buffer containing protease and phosphatase inhibitors. Primary antibodies used in Western blotting were goat-anti CKIα (1:100; Santa Cruz), mouse anti-CKIε (1:250; Santa Cruz), mouse anti-β-catenin (1:2500; BD transduction), rabbit anti-Phospho-β-catenin (Thr41/Ser45) (1:750, Cell Signaling), rabbit CM5 (anti-mouse p53) (1:400; Novocastra), mouse anti-human p53 (1:20; DO-1 hybridoma), rabbit anti-Phospho-p53 (Ser15) (1:1000; Cell Signaling), rabbit anti-Cyclin D1 (1:300; Lab Vision), rabbit anti-Cyclin D2 (1:1000; Santa Cruz), rabbit-anti Bax (1:200; Santa Cruz), mouse anti-MdmX (1:1000; Sigma), goat anti-MdmX (1:200; Santa Cruz), mouse anti-GSK3β (1:2500; BD transduction) rabbit anti-Cleaved Caspase-3 (1:1000; Cell Signaling), rabbit anti-PARP (1:1000; Cell Signaling), mouse anti-p21 (1:200; Santa Cruz), mouse anti-E2F1 (1:500, Santa Cruz), mouse anti-γH2AX (Ser139) (1:1000; Upstate), rabbit anti-Phospho-Chk2 (Thr68) (1:1000; Cell Signaling), rabbit anti-Hsp90 (1:5000; Calbiochem). Secondary antibodies used in Western blotting were HRP-conjugated, goat anti-rabbit, goat anti-mouse and rabbit anti-goat (1:10,000; Jackson). ECL (Amersham) was used for HRP detection. […]
In general terms: Quantitative PCR measures a nucleic acid by following its amplification.

The subject of series [1] is RKO colorectal carcinoma cells. The experiment in a line: CKIδ/ε or CKIδ shRNA knockdown in RKO colorectal carcinoma cells (DNA damage response). The format is cell-based. Particulars: CKIδ depletion, human colorectal carcinoma cell line, FIG. 21. How it is done: FIG. 21 is a photograph illustrating the DNA damage response (DDR) upon CKIδ/ε ablation.
For enterocyte isolation, ˜⅔ of the small intestine was washed and minced into small pieces in PBS/1 mM DTT. Intestine was separated into single cells in Ca^2+, Mg^2+ free HBSS containing 10 mM HEPES, 5 mM EDTA and 0.5 mM DTT, at 37° C. for 30 minutes with slow agitation. Lysate was mixed vigorously and cell suspension was centrifuged. Cell pellets were frozen in liquid N2 and stored at −80° C. Protein was extracted from cell pellets in cell lysis buffer containing protease and phosphatase inhibitors. […]
RKO and HCT116 cells were cultured in Dulbecco's modified Eagle's medium, supplemented with 10% fetal calf serum (Sigma). […] CKIα expression levels were determined before each experiment to ensure adequate knockdown. […]

Chain of CKI-epsilon (P49674 whole entry): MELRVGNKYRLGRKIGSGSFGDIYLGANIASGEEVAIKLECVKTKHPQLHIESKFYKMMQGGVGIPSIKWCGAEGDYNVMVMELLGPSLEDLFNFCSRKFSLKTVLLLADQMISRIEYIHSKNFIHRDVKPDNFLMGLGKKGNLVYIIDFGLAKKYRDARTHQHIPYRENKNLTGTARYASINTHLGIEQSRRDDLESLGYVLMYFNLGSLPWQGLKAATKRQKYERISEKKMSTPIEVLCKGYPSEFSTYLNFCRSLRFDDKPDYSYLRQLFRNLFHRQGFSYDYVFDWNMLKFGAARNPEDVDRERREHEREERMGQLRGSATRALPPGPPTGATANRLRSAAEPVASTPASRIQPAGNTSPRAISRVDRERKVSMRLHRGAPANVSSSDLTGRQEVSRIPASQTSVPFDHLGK
Chain of CKI-delta (P48730 whole entry): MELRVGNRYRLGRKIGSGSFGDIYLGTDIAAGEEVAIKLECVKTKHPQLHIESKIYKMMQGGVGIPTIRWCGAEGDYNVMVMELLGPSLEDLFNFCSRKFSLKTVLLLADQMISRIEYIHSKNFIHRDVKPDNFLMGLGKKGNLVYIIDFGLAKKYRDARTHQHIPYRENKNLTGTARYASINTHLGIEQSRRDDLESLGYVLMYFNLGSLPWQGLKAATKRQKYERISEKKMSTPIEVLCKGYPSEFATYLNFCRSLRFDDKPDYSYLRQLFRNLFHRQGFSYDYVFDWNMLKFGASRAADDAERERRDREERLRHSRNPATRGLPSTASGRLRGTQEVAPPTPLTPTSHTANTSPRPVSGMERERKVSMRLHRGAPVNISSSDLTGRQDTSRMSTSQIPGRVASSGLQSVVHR

With `COc1cc(OC)c(C=C2C(O)=Nc3ccccc32)c(OC)c1` [IC261], on CKI-epsilon, the “inhibition of CKI-epsilon” value was “specific inhibitor”. In addition, the “inhibition of CKI-delta” value on CKI-delta is listed as “specific inhibitor”.

Regarding `CC1=C(CC(=O)O)c2cc(F)ccc2/C1=C\c1ccc([S+](C)[O-])cc1` (centres unmarked) [Sulindac], in the series with CKIα KO mice (CKIα KO mice, Sulindac in the drinking water, FIG. 14), the “cell-non autonomous effects of CKIα deficiency” value was “prevents”. In the series with CKIα KO mice (CKIα knockout mice fed Sulindac), the “overall phenotype of the gut tissue: severity of dysplasia” value was “greatly reduced”. In addition, the “markers for Wnt activation, inflammation, senescence and cell growth arrest, including CyclinD1, Troy, Cox2, SA-β-gal and p21” value with CKIα KO mice (CKIα knockout mice fed Sulindac for the duration of the experiment) is given as “significant reduction”. Moreover, the “p53-independent senescence phenotype (SA β-gal) induced by CKIα deletion” value in the series with CKIα KO mice (intestines of CKIα KO mice treated with Sulindac, FIG. 13) was “reversed”. Further, the “clusters of cells with high grade dysplasia in the villi” value in the series on CKIα KO mice (sulindac fed CKIα KO mice, never found in control mutant mice) was “many clusters of cells were found with high grade dysplasia”.

For “CKIδ shRNA: shRNA sequence for CKIδ alone (SEQ ID NO: 5), from Open Biosystems, cloned in pLKO vector (CCGGCCCATCGAAGTGTTGTGTAAACTCGAGTTTACACAACACTTCGATGGGTTTTT)”, the p53 protein result in series [1] is on record as “induced p53 stabilization”.
